In patent US20080312164A1 (priority 2006, published 2008):
pIC50: −log10 of the molar value.

How the values were obtained:
[1] = tested on: Du145 cells; assay: Calcein AM cytotoxicity assay, Du145; format: cell-based; settings: Homo sapiens, DU-145; Du145, Calcein AM, 72 h; read-out: IC50
Excerpt: (§1) Five serial 1:2 dilutions were made with anhydrous DMSO at 100× the final concentration used in the assay.

[2] = tested on: Du145 cells; assay: Cell Titer-Glo cytotoxicity assay, Du145; format: cell-based; settings: Homo sapiens, DU-145; Du145, Cell Titer-Glo, 72 h; read-out: IC50
Excerpt: as §1

[3] = tested on: HCT-116 cells; assay: Calcein AM cytotoxicity assay, HCT-116; format: cell-based; settings: Homo sapiens; HCT-116, Calcein AM, 72 h; read-out: IC50
Excerpt: as §1

[4] = tested on: HCT-116 cells; assay: Cell Titer-Glo cytotoxicity assay, HCT-116; format: cell-based; settings: Homo sapiens; HCT-116, Cell Titer-Glo, 72 h; read-out: IC50
Excerpt: as §1

[5] = tested on: Hep3B cells; assay: Calcein AM cytotoxicity assay, Hep3B; format: cell-based; settings: Homo sapiens, Calcein AM, 72 h, read-out: IC50
Excerpt: as §1

[6] = tested on: Hep3B cells; assay: Cell Titer-Glo cytotoxicity assay, Hep3B; format: cell-based; settings: Homo sapiens, Cell Titer-Glo, 72 h, read-out: IC50
Excerpt: as §1

[7] = tested on: SF-268 cells; assay: Calcein AM cytotoxicity assay, SF-268; format: cell-based; settings: Homo sapiens; SF-268, Calcein AM, 72 h; read-out: IC50
Excerpt: as §1

[8] = tested on: SF-268 cells; assay: Cell Titer-Glo cytotoxicity assay, SF-268; format: cell-based; settings: Homo sapiens; SF-268, Cell Titer-Glo, 72 h; read-out: IC50
Excerpt: as §1

[9] = tested on: SK-OV-3 cells; assay: Calcein AM cytotoxicity assay, SK-OV-3; format: cell-based; settings: Homo sapiens; SK-OV-3, Calcein AM, 72 h; read-out: IC50
Excerpt: as §1

[10] = tested on: SK-OV-3 cells; assay: Cell Titer-Glo cytotoxicity assay, SK-OV-3; format: cell-based; settings: Homo sapiens; SK-OV-3, Cell Titer-Glo, 72 h; read-out: IC50
Excerpt: as §1

[11] = tested on: NCI/ADR RES cells; assay: Calcein AM cytotoxicity assay, NCI/ADR-RES; format: cell-based; settings: Homo sapiens, Calcein AM, 72 h, read-out: IC50
Excerpt: as §1

[12] = tested on: NCI/ADR RES cells; assay: Cell Titer-Glo cytotoxicity assay, NCI/ADR-RES; format: cell-based, human; settings: Homo sapiens; NCI/ADR-RES, Cell Titer-Glo, 72 h; read-out: IC50
Excerpt: as §1

[13] = tested on: NCI-H460 cells; assay: Calcein AM cytotoxicity assay, NCI-H460; format: cell-based; settings: Homo sapiens; NCI-H460, Calcein AM, 72 h; read-out: IC50
Excerpt: as §1

[14] = tested on: NCI-H460 cells; assay: Cell Titer-Glo cytotoxicity assay, NCI-H460; format: cell-based, human; settings: Homo sapiens; NCI-H460, Cell Titer-Glo, 72 h; read-out: IC50
Excerpt: as §1

[15] = tested on: MCF7 cells; assay: Calcein AM cytotoxicity assay, MCF7; format: cell-based; settings: Homo sapiens; MCF7, Calcein AM, 72 h; read-out: IC50
Excerpt: as §1

[16] = tested on: MCF7 cells; assay: Cell Titer-Glo cytotoxicity assay, MCF7; format: cell-based, human; settings: Homo sapiens; MCF7, Cell Titer-Glo, 72 h; read-out: IC50
Excerpt: as §1

[17] = tested on: NmuMG mouse mammary normal epithelial cells; assay: Calcein AM cytotoxicity assay, NmuMG; format: cell-based; settings: Epithelial cell, NmuMG, Calcein AM, 72 h, read-out: IC50
Excerpt: as §1

[18] = tested on: NmuMG mouse mammary normal epithelial cells; assay: Cell Titer-Glo cytotoxicity assay, NmuMG; format: cell-based; settings: Mus musculus, Epithelial cell; NmuMG, Cell Titer-Glo, 72 h; read-out: IC50
Excerpt: as §1

[19] = tested on: HT-29 cells; assay: MTT cytotoxicity assay, HT-29; format: cell-based; settings: Homo sapiens; HT-29, MTT, 24 h; read-out: IC50
Excerpt: The IC50 value for each library member represents at least twelve replicates of dose-response experiments conducted over five concentrations. […] In this assay, live cells were distinguished by the intracellular enzymatic activity that converts the cell-permeable molecule MTT to strongly colored formazan crystals, which are retained within live cells and absorb light at 570 nm.
MTT Cytotoxicity Assay. HT-29 cell lines were maintained in RPMI medium 1640 supplemented with 10% (wt/vol) FBS and 1% penicillin-streptomycin (PS) (100 units/mL and 100 μg/mL). Cells were harvested by trypsinization using 0.25% trypsin and 0.1% EDTA and plated at a density of 2,000-5,000 cells per well of each 96-well microtiter plate. Cells were grown for 24 h at 37° C., with 5% CO2/95% air in a humidified incubator to allow cell attachment to occur before compound addition. Library members were stored at −20° C. under desiccating conditions before the assay. Library member stocks (1000×) were prepared in falcon tubes (BD Biosciences). Five dilutions were made with DMSO at 1000× the final concentration used in the assay. The 1000× stocks (3 μL) were diluted with complete culture medium (3 mL). Each plate contained twelve replicates of cells treated with 0.1% DMSO in complete cell culture medium that served as an individual negative control. Library member stocks (1×, 200 μL) were added to aspirated cells and replicated twelve times on each plate. Cells were incubated with the library members for 24 h before optical density reading. Test plates were removed from the incubator and washed once in sterile PBS to remove serum containing library members. Freshly-made 10×MTT solution in sterile PBS (5 mg/mL) was diluted 1:10 in serum-free culture medium and was sterilized using a 0.2 μm filter. Diluted MTT solution (1×, 50 μL) was added to each well and the plates were incubated in the dark for 2 h. Test plates were centrifuged at 1800×g for 5 min at 4° C. using a Beckman GPR centrifuge. MTT solution was removed by aspiration and 100 μL DMSO was added to each well to lyse cells and solubilize formazan crystals. Test plates were incubated in the dark at room temperature for 10 min. Plates were read for optical density at 570 nm.
IC50 Calculations. For each library member, at least three dose-response experiments were conducted on separate plates. […] To calculate IC50, percent inhibitions were plotted as a function of log[concentration] and then fit to a four-parameter logistic model that allowed for a variable Hill slope by using XLFIT 4.1 (ID Business Solutions, Emeryville, Calif.).

[20] = tested on: human cancer cell lines; assay: Cytotoxicity across the panel of human cancer cell lines (average, high-throughput assays); format: cell-based; settings: average across eight human cancer cell lines; MTT (HT-29) values excluded; read-out: Cancerous Average IC50 / Average IC50 in Cancer Cell Lines
Excerpt: as §1

Structure (SMILES) | pIC50 [1] | pIC50 [2] | pIC50 [3] | pIC50 [4] | pIC50 [5] | pIC50 [6] | pIC50 [7] | pIC50 [8] | pIC50 [9] | pIC50 [10] | pIC50 [11] | pIC50 [12] | pIC50 [13] | pIC50 [14] | pIC50 [15] | pIC50 [16] | pIC50 [17] | pIC50 [18] | pIC50 [19] | pIC50 [20]
S=C=NCc1ccccc1Br [Compound 25, 1-bromo-2-(isothiocyanatomethyl)benzene] | 5.40 | 5.06 | 4.71 | 5.41 | 5.25 | 4.79 | 5.22 | 5.15 | 5.20 | 5.30 | < 4.70 | 4.70 | 4.71 | 4.76 | 5.17 | 5.56 | 4.95 | 5.34 | 4.57 | 4.99
S=C=NCc1ccc(Br)cc1 [Compound 26, 1-bromo-4-(isothiocyanatomethyl)benzene] | 5.12 | 5.00 | 5.29 | 5.01 | 5.15 | 5.17 | 4.96 | 5.16 | 5.40 | 5.14 | < 4.70 | 4.65 | 4.80 | < 4.70 | 5.15 | 5.23 | 4.74 | 5.01 | 4.32 | 4.97
COc1cc(OC)c(CN=C=S)c(OC)c1 [Compound 28, 2-(isothiocyanatomethyl)-1,3,5-trimethoxybenzene] | 5.60 | 5.32 | 5.03 | 5.34 | 5.73 | 5.49 | 5.34 | 5.52 | 5.41 | 5.32 | 4.92 | 4.82 | 4.92 | 4.97 | 5.24 | 5.50 | 5.53 | 5.68 | 4.77 | 5.19
S=C=NCc1ccc2c(c1)OCO2 [Compound 29, 5-(isothiocyanatomethyl)benzo[d][1,3]dioxole] | 5.66 | 5.20 | < 4.70 | 5.32 | 5.41 | 5.37 | 5.59 | 5.41 | 5.55 | 5.35 | 5.19 | 5.01 | 5.02 | 4.94 | 5.50 | 5.60 | > 4.90 | 4.77 | 4.52 | 5.24
S=C=NCc1cccc2ccccc12 [Compound 30, 1-(isothiocyanatomethyl)naphthalene] | 5.08 | 4.78 | < 4.70 | 5.34 | 4.82 | 4.70 | 5.70 | 5.47 | 5.49 | 5.31 | 5.05 | 5.01 | 4.90 | 4.88 | > 5.50 | 5.64 | 4.86 | 4.67 | < 4.30 | 5.04
